Structures are written as SMILES.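 Following 48 hours of exposure in 96-well plates, responses at five concentrations were used to interpolate endpoints linearly. Abbreviation: GI50, concentration required for 50% inhibition of growth. TGI: concentration producing complete growth inhibition.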

Among the test systems are A549 NSCLC; COLO 205 colon; NCI-H460 lung; NCI/ADR-RES ovarian; OVCAR-4 ovarian; SF-539 CNS; SK-OV-3 ovarian; T-47D breast.
Common to all, as to experiment: inhibition of tumour cell growth, NCI panel, 48 h

Take `c1ccc(CN2CCC(Nc3ccccc3)(c3nnnn3Cc3ccccc3)CC2)cc1`: the TGI in the assay on A549 NSCLC is more than 100 µM; in the assay with COLO 205 colon, 28.9 µM; in the assay with NCI-H460 lung, 53.9 µM; in the assay on NCI/ADR-RES ovarian it was more than 100 µM; in the assay on OVCAR-4 ovarian, more than 100 µM; in the assay with SF-539 CNS it was 41.5 µM. The figures for the TGI in the assay with SK-OV-3 ovarian and with T-47D breast were more than 100 µM and 72.4 µM, respectively.

For the molecule `COc1cc2c(cc1OCCCCCCN1CCN(CC(=O)Nc3ccc(Cl)cc3C(=O)c3ccccc3Cl)CC1)N=CC1CCCN1C2=O` (centres undefined), the GI50 in the assay on A549 NSCLC was 0.251 µM; in the assay on COLO 205 colon it was 0.154 µM; with NCI-H460 lung it was 0.18 µM; with NCI/ADR-RES ovarian, 0.733 µM; in the assay with OVCAR-4 ovarian, 0.419 µM; with SF-539 CNS, 0.289 µM. Also, the figures for the GI50 in the assay with SK-OV-3 ovarian and in the assay on T-47D breast were 0.494 µM and 0.164 µM, respectively. For the same molecule, the TGI with A549 NSCLC is 0.765 µM; in the assay on COLO 205 colon, 0.314 µM; with NCI-H460 lung, 0.334 µM; in the assay with NCI/ADR-RES ovarian, 2.48 µM; with OVCAR-4 ovarian, 1.25 µM; in the assay on SF-539 CNS it was 0.74 µM. In addition, the TGI came out at 1.17 µM in the assay on SK-OV-3 ovarian and 0.415 µM in the assay with T-47D breast.

In the case of `c1ccc2c(-c3nc(-c4c[nH]c5ccncc45)cs3)c[nH]c2c1`, the GI50 is 2.45 µM with A549 NSCLC; 1.76 µM in the assay on NCI-H460 lung; 3.2 µM in the assay with NCI/ADR-RES ovarian; 2.96 µM in the assay with OVCAR-4 ovarian; 1.79 µM in the assay on SF-539 CNS; 2.62 µM in the assay on SK-OV-3 ovarian. Also, the TGI amounted to 6.21 µM in the assay on A549 NSCLC; 3.58 µM in the assay on NCI-H460 lung; 15.5 µM in the assay on NCI/ADR-RES ovarian; 11.7 µM with OVCAR-4 ovarian; 3.29 µM with SF-539 CNS; 8.29 µM in the assay with SK-OV-3 ovarian.

As to `COc1ncnc(S(=O)(=O)c2ccc(N=C3C(=O)N(CN4CCN(c5cc6c(cc5F)c(=O)c(C(=O)O)cn6C5CC5)CC4)c4ccc(Cl)cc43)cc2)c1OC`, the GI50 with A549 NSCLC is more than 50 µM; with COLO 205 colon, more than 50 µM; in the assay with NCI-H460 lung, 37.4 µM; with NCI/ADR-RES ovarian it was more than 50 µM; with SF-539 CNS, more than 50 µM; in the assay with T-47D breast, more than 50 µM. The TGI in the assay with A549 NSCLC, with COLO 205 colon, in the assay on NCI-H460 lung, in the assay on NCI/ADR-RES ovarian, in the assay with SF-539 CNS and in the assay on T-47D breast was more than 50 µM each time.

Take `Cc1ccc(N=Nc2c(O)ccc3ccccc23)cc1`: the TGI with A549 NSCLC, with COLO 205 colon, with NCI/ADR-RES ovarian, with OVCAR-4 ovarian, in the assay with SK-OV-3 ovarian and with T-47D breast was more than 100 µM in each case.

As for `Cc1c(-c2ccnc(N)n2)c2c(n1Cc1ccccc1)C(=O)c1ccccc1C2=O`, the GI50 in the assay on A549 NSCLC is more than 100 µM; with COLO 205 colon, 15.5 µM; in the assay on NCI-H460 lung it was 6.42 µM; in the assay on NCI/ADR-RES ovarian it was 13.3 µM; with OVCAR-4 ovarian, 20.7 µM; in the assay with SK-OV-3 ovarian it was 18.2 µM. Moreover, the GI50 in the assay on T-47D breast is 47.8 µM. In addition, the TGI with A549 NSCLC was more than 100 µM; with COLO 205 colon it was 43.9 µM; in the assay on NCI-H460 lung, 26.5 µM; in the assay with NCI/ADR-RES ovarian, more than 100 µM; in the assay on OVCAR-4 ovarian, more than 100 µM; in the assay on SK-OV-3 ovarian it was 77.4 µM. In the assay with T-47D breast, the TGI is more than 100 µM.

`NCCOCCOCCNc1nc(-c2ccc(Cl)cc2)nc(N2CCN(c3ccccn3)CC2)n1`: the GI50 with NCI/ADR-RES ovarian is 3.66 µM; in the assay with OVCAR-4 ovarian it was 2.78 µM; with SF-539 CNS, 2.41 µM; in the assay with SK-OV-3 ovarian, 2.67 µM; in the assay with T-47D breast, 3.09 µM. Moreover, the TGI turned out to be 16 µM with NCI/ADR-RES ovarian; 10.5 µM with OVCAR-4 ovarian; 5.18 µM in the assay with SF-539 CNS; 6.28 µM in the assay on SK-OV-3 ovarian; 9.94 µM in the assay with T-47D breast.

In the case of `CCCCCC[C@H](C)Nc1nc2ccccc2c2occc12`, the GI50 with A549 NSCLC is 8.3 µM; in the assay with COLO 205 colon, 34.4 µM; in the assay with NCI-H460 lung, more than 100 µM; with NCI/ADR-RES ovarian it was 0.147 µM; with SF-539 CNS, 4.16 µM; in the assay with SK-OV-3 ovarian, 16.5 µM. In addition, the GI50 in the assay on T-47D breast is 33.2 µM. In addition, the TGI is 26.2 µM with A549 NSCLC; more than 100 µM in the assay with COLO 205 colon; more than 100 µM with NCI-H460 lung; 12.8 µM in the assay on NCI/ADR-RES ovarian; 15.2 µM in the assay with SF-539 CNS; 36.2 µM in the assay on SK-OV-3 ovarian. Also, the TGI with T-47D breast turned out to be 61.8 µM.

With `COc1cc(C)c(C2NC(=O)c3ccccc3N2)cc1C` (centres undefined), the TGI was more than 100 µM with A549 NSCLC; 4.64 µM with COLO 205 colon; 26.5 µM in the assay on NCI-H460 lung; 0.679 µM with NCI/ADR-RES ovarian; more than 82.9 µM in the assay on OVCAR-4 ovarian; 0.734 µM in the assay on SF-539 CNS. The molecule further yielded a TGI in the assay on T-47D breast of more than 100 µM.

On to `CC(C)(C)OC(=O)NCCCn1c2c(c3ccccc3c1=O)C(=O)c1ccccc1-2`, for which the GI50 was 41.9 µM with A549 NSCLC; more than 100 µM with COLO 205 colon; 33.9 µM in the assay with NCI-H460 lung; 6.69 µM in the assay on NCI/ADR-RES ovarian; 10.3 µM in the assay with SF-539 CNS; 25 µM with SK-OV-3 ovarian. In addition, in the assay with T-47D breast, the GI50 was 29.6 µM. Also, the TGI was more than 100 µM in the assay with A549 NSCLC; more than 100 µM with COLO 205 colon; more than 100 µM in the assay with NCI-H460 lung; 98.6 µM in the assay on NCI/ADR-RES ovarian; 29.3 µM in the assay on SF-539 CNS; more than 100 µM with SK-OV-3 ovarian. Also, the TGI with T-47D breast was more than 100 µM.

Take `COc1ccc(C(=O)NNc2nc(Cl)nc(N3CCN(C(c4ccccc4)c4ccccc4)CC3)n2)cc1`: the GI50 in the assay with A549 NSCLC is 17.9 µM; in the assay with COLO 205 colon it was 3.21 µM; with NCI-H460 lung it was 3.52 µM; in the assay with OVCAR-4 ovarian, 1.81 µM; in the assay with SF-539 CNS it was 1.73 µM; in the assay on SK-OV-3 ovarian, 11.9 µM. The GI50 with T-47D breast is 64 µM. The TGI in the assay with A549 NSCLC amounted to 39.1 µM; with COLO 205 colon it was 13.4 µM; with NCI-H460 lung, 11.9 µM; with OVCAR-4 ovarian it was 3.56 µM; in the assay with SF-539 CNS, 3.21 µM; in the assay on SK-OV-3 ovarian, 25.8 µM. In the assay on T-47D breast, the TGI is more than 100 µM.

On to `O=c1[nH]c2ccccc2n1CCCN1CCC(n2c(=O)[nH]c3cc(Cl)ccc32)CC1`, for which the TGI in the assay on A549 NSCLC was found to be 63.8 µM; in the assay on COLO 205 colon, 27.9 µM; in the assay on NCI-H460 lung, 32.2 µM; with NCI/ADR-RES ovarian, 60.8 µM; with OVCAR-4 ovarian, 37.9 µM; in the assay on SK-OV-3 ovarian, 51.5 µM. Further, the TGI in the assay with T-47D breast was 37.3 µM.

(Values after PubChem BioAssay (NCI).)
